# According to patent US9228175B2, “Genes encoding a novel type of lysophophatidylcholine acyltransferases and their use to increase triacylglycerol production and/or modify fatty acid composition” (National Research Counsel of Canada, priority 2006, dated 2016):
# T1: LCA1 (YOR175c) (Saccharomyces cerevisiae, UniProt Q08548)
# T1 construct: Saccharomyces cerevisiae YOR175c ORF was PCR-amplified; made in house; host or cells: S. cerevisiae YOR175c deletion strain Y02431 (lca1Δ), pYES2.1, galactose induction; microsomal fraction
# T1 sequence (Q08548 1-619): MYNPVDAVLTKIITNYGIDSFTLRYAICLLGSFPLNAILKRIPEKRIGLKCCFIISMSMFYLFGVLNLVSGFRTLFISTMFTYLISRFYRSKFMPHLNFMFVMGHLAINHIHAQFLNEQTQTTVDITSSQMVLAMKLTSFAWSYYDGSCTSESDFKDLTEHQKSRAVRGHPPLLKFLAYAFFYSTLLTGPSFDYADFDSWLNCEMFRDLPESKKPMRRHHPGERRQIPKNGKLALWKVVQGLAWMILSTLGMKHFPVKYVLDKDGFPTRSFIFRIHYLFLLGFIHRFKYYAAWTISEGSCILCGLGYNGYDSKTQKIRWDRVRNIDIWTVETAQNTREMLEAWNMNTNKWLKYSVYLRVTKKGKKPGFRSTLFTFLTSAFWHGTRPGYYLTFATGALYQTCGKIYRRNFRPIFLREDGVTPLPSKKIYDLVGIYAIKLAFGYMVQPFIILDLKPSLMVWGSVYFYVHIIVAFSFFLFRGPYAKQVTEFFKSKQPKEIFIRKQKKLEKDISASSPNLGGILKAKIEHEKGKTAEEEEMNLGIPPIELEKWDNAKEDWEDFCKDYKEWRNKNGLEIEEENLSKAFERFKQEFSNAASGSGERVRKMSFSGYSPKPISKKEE
# T2: LCA1 (Saccharomyces cerevisiae, UniProt Q08548)
# T2 construct: Saccharomyces cerevisiae YOR175c ORF was PCR-amplified; made in house; host or cells: S. cerevisiae YOR175c deletion strain Y02431 (lca1Δ), pYES2.1, galactose induction; microsomal fraction
# T2 sequence (Q08548 1-619): T1 sequence (Q08548 1-619)
# B1: LCA1: yeast (S. cerevisiae) LPC acyltransferase encoded by YOR175c, SEQ ID NO:2 (protein, listed as Saccharomyces cerevisiae)
# chain: T1 sequence (Q08548 1-619)
# Columns and labels:
# LCA1 (YOR175c) = target: T1, LCA1 (YOR175c); assay: In vitro assay of LPCAT activity: substrate specificity and kinetics of LCA1 (YOR175c); format: biochemical; conditions: for Rate of acylation as % of the activity registered for LPC: [^14C] palmitoyl-CoA as acyl donor, 50 μM lysophospholipid, microsomes of lca1Δ expressing YOR175c
# Method: FIG. 11 is a graph showing the substrate specificity of LCA1. The assays were performed with 3 μg microsomal protein from lca1Δ harboring an empty vector (V0) and lca1Δ expressing LCA1. The reaction contained 112.5 μm [^14C] palmitoyl-CoA (5.5 nCi/nmol) and 50 μM lysophospholipid substrate (LPA, LPC, LPE, LPG, LPI, and LPS). Reaction was allowed for two minutes with 100 rpm shaking. The results are presented as a mean of three assays.
# (§1) Microsomal preparation: Yeast strains were first grown in 15 ml of SC-Leu-His-Ura medium containing 2% glucose. Protein expression induction was carried out as described in Invitrogen manufacturer manual for yeast expression vector pYES2.1. After 24 hours of growth in SC+2% galactose+1% raffinose induction conditions, the cells were washed, first with distilled water and then with wall-breaking buffer (50 mM Tris-HCl, 1 mM EDTA, 0.6 M sorbitol, pH 7.4, 1 mM DTT). After centrifugation at 4,000 rpm (Eppendorf Centrifuge 5145C), the cells were resuspended in 1 ml wall-breaking buffer with 10 μl yeast protease cocktail (Sigma), and shaken vigorously in the presence of acid-washed glass beads (diameter 0.5 mm). The resultant homogenate was centrifuged at 12,000 rpm for ten minutes at 4° C. The decanted supernatant was further centrifuged at 100,000×g for 90-120 minutes at 4° C. The supernatant was discarded, and the pellet was suspended in homogenization buffer containing 20% glycerol and frozen at −80° C. until use. Protein concentration was measured using Bio-Rad Protein Assay Kit for final enzyme activity calculation.
# (§2) In Vitro Assay of LPCAT activity: LPCAT substrate specificity was determined by measuring incorporation of [^14C] lysophosphatidylcholine or [^14C] palmitoyl-CoA into phosphatidylcholine. All assays were performed at least twice. For lysophospholipid substrate specificity assessment, 400 μl HEPES buffer contained 3 μg microsomal protein, 50 μM of lysophospholipid substrates and 112.5 μM [^14C] palmitoyl-CoA (5.5 nCi/nmol). For acyl-CoA substrate selectivity analysis, 400 μl HEPES reaction buffer (pH7.4, 0.1 M) contained 3 μg microsomal protein, 50 μM acyl-CoA and 112.5 μM [^14C] […] (1.35 nCi/nmol). Reaction was allowed for 2 minutes at 30° C. with 100 rpm shaking. The reaction products were extracted with chloroform/methanol (2/1, v/v) and separated with Merck silica G60 TLC plates. Spots corresponding to different phospholipid species products were scraped off and ^14C incorporation were scintillation counted. Different concentrations of ZnCl2 were added in to reactions for Zn^2+ inhibitory effect assay.
# [1] = system: lca1Δ yeast mutant (Y02431); format: cell-based, Saccharomyces cerevisiae
# Method: (§3) Cells were frown first in SC-URA+2% glucose media overnight then in protein expression induction media for six hours. Cultures were diluted to OD600 value of OD600 0.5, 1, 2, 3, respectively, from which 5 μl were inoculated (from left to right) onto YPD plate containing lyso-PAF or lyso-PC. The plates were incubated at 28° C. for 36 hours.
# (§4) Lyso-PAF sensitivity: Yeast strains Y02431 over-expressing LCA1 or harboring empty vector were first grown in 15 ml of SC-ura medium containing 2% glucose then transferred to SC-ura+2% galactose and 1% raffinose. After 12 hours LCA1 expression induction, the culture was diluted to correspond to OD600 value of 0.5, 1, 2, 3, 4. Five μl of each dilution was spotted to a YPD plate supplemented with varying concentrations of Lyso-PAF. The plates were incubated at 28° C. for two days.
# Lyso-PAF sensitivity: Yeast strains BY02431 carrying pYES 2.1-AtLPCATs or the empty vector were first grown in 15 ml of SC-Leu-His-ura medium containing 2% glucose. Yeast transformant strains of AtLPCATs were first grown in YPD overnight. Protein expression induction were carried out by protocol described in Invitrogen manufacturer manual for yeast expression vector pYES2.1. After 12 hours induction, 5 μl cultures were inoculated onto YPD plate with 10 μg/ml lysoPAF. The plates were incubated at 28° C. for two days. The final lysoPAF is 10/ml.
# [2] = system: parental (WT) yeast strain; assay: Lyso-PAF and lyso-PC sensitivity plate test, parental strain; format: cell-based, Saccharomyces cerevisiae; conditions: plate assay
# Method: as §3, §4
# LCA1 = target: T2, LCA1; assay: Zn^2+ / Mg^2+ effect on LPCAT activity of LCA1 (in vitro assay, microsomes of lca1Δ over-expressing LCA1); format: biochemical; conditions: concentration ranging from 5 to 40 μM (data not shown)
# Method: as §1, §2
# Results are expressed as means±S.D. The lca1Δ over-expressing LCA1 was used to assess Zn^2+ effect. The reactions contained 5.6 μM palmitoyl-LPC (1.35 nCi/nmol), 1.5 μg microsomal proteins, 0.1 M HEPES (pH 7.4), 11.25 μM stearyl-CoA and indicated concentration of ZnCl2. The reaction was stopped after two minutes by adding 2 ml of chloroform/methanol solution (2:1).
molecule,measurement,setting,value
lysophosphatidylethanolamine [LPE],Rate of acylation as % of the activity registered for LPC,LCA1 (YOR175c),~20%
lysophosphatidylglycerol [LPG],Rate of acylation as % of the activity registered for LPC,LCA1 (YOR175c),approximately 60%
lysophosphatidylcholine [LPC],Level tolerated,"[1]; lca1Δ, plate assay",up to 20 μg/ml
same,Acyltransferase activity among lysophospholipid substrates,"LCA1 (YOR175c); [^14C] palmitoyl-CoA, LPA, LPC, LPE, LPG, LPI, LPS compared",highest activity
same,Level tolerated,[2],up to 20 μg/ml
[Mg+2] [Mg^2+],Effect on LPCAT activity of LCA1,LCA1,did not detect significant effect
1-O-alkyl-sn-glycero-3-phosphocholine [lyso-PAF],Growth of lpcat yeast mutant,[1]; 10 ug/ml on YPD plate,incapable of growth
same,Concentration above which hypersensitivity is displayed,"[1]; lca1Δ mutant, plate assay",above 5 μg/ml
"CCCCCCCCCCCCCCCC(=O)OC[C@@H](O)COP(=O)([O-])OCC[N+](C)(C)C [LPC (16:0), palmitic (16:0)-LPC]",Concentration above which inhibitory effects on LPCAT activity are exerted,LCA1 (YOR175c); data not shown,above 75 μM
B1,Vmax,LCA1 (YOR175c); Lineweaver-Burk double-reciprocal plot,524 pmol/min/μg protein
same,Km,"LCA1 (YOR175c); Lineweaver-Burk double-reciprocal plot, read-out: apparent Km for acyl-CoA",0.89 ± 0.25 µM
same,Increase in lyso-PAF acyltransferase activity on over-expression,LCA1 (YOR175c); lyso-PAF as acyl acceptor,86.3 fold
